In patent US20250243220A1, “ATR INHIBITORS” (APREA THERAPEUTICS, INC., priority 2022, published 2025):

Experiments:
Assay type in all cases: cell-based
MEC (+APH) = assay: MEC (+APH)
HCT116 Bcl/xl = assay: IC50 assay by Western blot (APH-treated cells), HCT116 Bcl/xl; conditions: for IC50: Homo sapiens, HCT-116
Experimental: (§1) E. Treatment of Cells for IC50 Assay by Western Blot
(§2) The compound is stored as a 1 mM stock solution prepared in accordance with the Receipt of Compound SOP. The stock solution is diluted in cell media in two separate 1:10 dilution series.
(§3) 1. Arrange twelve 15-mL centrifuge tubes in a rack in two series and label them in accordance with Dilutions Series 1 and Dilution Series 2 shown in Table 1 and Table 2, respectively.
(§4) 2. Place 2.5 mL of prewarmed cell media in each of the […]. Place 2.25 mL of prewarmed cell media in the remaining tubes.
(§5) 3. Add 7.5 μL of 1 mM compound stock solution in the 3 μM tube. Mix well.
(§6) 4. Add 2.5 μL of 1 mM compound stock solution in the 1 μM tube. Mix well.
(§7) 5. For each series (separately), remove 250 μL from the leftmost tube and transfer to the next tube to the right. Repeat for each tube until the series is complete.
(§8) 6. Set aside the 1 μM tube, the 3 μM tube, and the 300 nM tube for discard.
(§9) 7. The cells to be treated will be in 6-well plates labeled by cell line. Remove the cells from the incubator and label the wells with the dosages to be administered.
(§10) 8. Arrange the dilution tubes in the rack in a manner that reflects the 6-well plate arrangement so as to avoid confusion when administering the dosage solutions to the appropriate wells.
(§11) 9. Aspirate the three wells in the top row of the first plate (labeled NT, APH+, and APH+) and replace with 2 mL fresh media (without drug compound).
(§12) 10. Aspirate the three wells in the bottom row of the first plate and replace each well with 2 mL of solution from the appropriate tube.
(§13) 11. Repeat step 10 for the next row of wells (top row second plate). and then for the final row of wells (bottom row second plate).
(§14) 12. Place both plates into the incubator for 30 minutes.
(§15) 13. After 30 minutes have elapsed, remove the plates from the incubator.
(§16) 14. Acquire stock solution of APH (5 mM) and add 2 μL of the APH stock solution to the center of each well except the well labeled NT.
(§17) 15. Swirl the plates carefully and gently to diffuse the APH throughout each well.
(§18) 16. Place the plates back in the incubator for 4 hours, at which point the cells will be harvested for analysis.
(§19) 17. Twenty minutes before harvesting (or 3 hours and 40 minutes after administration of APH), turn on a heat block suitable to heat Eppendorf tubes. Set the temperature to 95° C.
(§20) 18. Set up a number of Eppendorf tubes equal to the number of wells treated (i.e., twelve per two-plate drug administration), and label each tube with cell line, compound administered, dosage level, and date. Leave the tubes open.
(§21) 19. Add 200 mL DI water to a beaker.
(§22) 20. After 4 hours, remove treated plates from incubator.
(§23) 21. Aspirate media from all wells.
(§24) 22. Wash each well with 2 mL 1×PBS and aspirate.
(§25) 23. Sterilize vacuum line with 70% ethanol by spraying some into the nozzle while the vacuum is engaged. Shut off vacuum.
(§26) 24. Add Laemmli buffer to each well. For HCT116 Bcl/xl, OVCAR-3, and 22RV1 cells, add 300 μL per well; for OVCAR-8 and SKOV-3 cells, add 250 μL per well.
(§27) 25. Scrape the first well thoroughly. Place the scraper into the DI water between uses.
(§28) 26. Transfer the lysed cell debris mixture to the first tube carefully. The mixture will be viscous. Use a 1000-μL pipettor. Close the tube.
(§29) 27. Repeat steps 25 and 26 for each well.
(§30) 28. When all wells have been harvested, place all the tubes into the heat block. Place a weighted, heat-resistant object on top of the tubes to keep them closed.
(§31) 29. After 5 minutes, remove the tubes from the heat block and turn it off. Vortex each tube for 10 seconds. Be cautious of tubes popping open.
(§32) 30. Allow the tubes to come to room temperature and proceed to further analysis or store frozen at −20° C.

OVCAR-3 = assay: IC50 assay by Western blot (APH-treated cells), OVCAR-3; conditions: OVCAR-3 cells; for IC50: Homo sapiens
Experimental: as §1, §2, §3, §4, §5, §6, §7, §8, §9, §10, §11, §12, §13, §14, §15, §16, §17, §18, §19, §20, §21, §22, §23, §24, §25, §26, §27, §28, §29, §30, §31, §32

OVCAR-8 = assay: IC50 assay by Western blot (APH-treated cells), OVCAR-8; conditions: OVCAR-8 cells; for IC50: Homo sapiens
Experimental: as §1, §2, §3, §4, §5, §6, §7, §8, §9, §10, §11, §12, §13, §14, §15, §16, §17, §18, §19, §20, §21, §22, §23, §24, §25, §26, §27, §28, §29, §30, §31, §32

SKOV-3 = assay: IC50 assay by Western blot (APH-treated cells), SKOV-3; conditions: SKOV-3 cells; for IC50: Homo sapiens, SK-OV-3
Experimental: as §1, §2, §3, §4, §5, §6, §7, §8, §9, §10, §11, §12, §13, §14, §15, §16, §17, §18, §19, §20, §21, §22, §23, §24, §25, §26, §27, §28, §29, §30, §31, §32

22RV1 = assay: IC50 assay by Western blot (APH-treated cells), 22RV1; conditions: 22RV1 cells; for IC50: Homo sapiens
Experimental: as §1, §2, §3, §4, §5, §6, §7, §8, §9, §10, §11, §12, §13, §14, §15, §16, §17, §18, §19, §20, §21, §22, §23, §24, §25, §26, §27, §28, §29, §30, §31, §32

[1] = tested on: HCT Bcl/xl, OVCAR-3, OVCAR-8, SKOV-3, 22RV1 cell lines; assay: Ave. IC50 across cell lines; conditions: average across cell lines

Row | SMILES | IC50 (HCT116 Bcl/xl) | IC50 (OVCAR-3) | IC50 (OVCAR-8) | IC50 (SKOV-3) | IC50 (22RV1) | IC50 [1] | minimal effective concentration (MEC (+APH)) | PALD (Percent Activity at Lowest Dose tested) HCT Bcl/xl (HCT116 Bcl/xl) | PALD (Percent Activity at Lowest Dose tested) OVCAR-3 (OVCAR-3) | PALD (Percent Activity at Lowest Dose tested) OVCAR-8 (OVCAR-8) | PALD (Percent Activity at Lowest Dose tested) SKOV-3 (SKOV-3) | PALD (Percent Activity at Lowest Dose tested) 22RV1 (22RV1)
1 | CNCc1cccc2c1OCCCCCC[C@@](C)(O)CC(C)(C)S(=O)(=O)c1ccc(cc1)-c1cnc(N)c(n1)C(=O)N2 (single isomer, unassigned) [Compound A-2] | 2.29 nM | 0.753 nM | 2.95 nM | 2.71 nM | 3.44 nM | 2.42 nM | 2e-05 µM | (91%) | (101%) | (82%) | (110%) | (107%)
2 | CNCc1cccc2c1OCCCCCCC(C)(O)CC(C)(C)S(=O)(=O)c1ccc(cc1)-c1cnc(N)c(n1)C(=O)N2 (racemic) [Compound A, 5-amino-22-hydroxy-22,24,24-trimethyl-13-(methylaminomethyl)-25,25-dioxo-15-oxa-25λ^6-thia-4,8,31-triazatetracyclo[24.2.2.1^2,6.0^9,14]hentriaconta-1(28),2(31),3,5,9(14),10,12,26,29-nonaen-7-one] | 3.49 nM | 2.19 nM | 1.68 nM | 2.39 nM | 8.28 nM | 3.61 nM | 2e-05 µM | (74%) | (111%) | (71%) | (88%) | (73%)
3 | CNCc1cccc2c1OCCCCCC[C@](C)(O)CC1(CC1)S(=O)(=O)c1ccc(cc1)-c1cnc(N)c(n1)C(=O)N2 (single isomer, unassigned) [Compound B-1] | 4.61 nM | 7.43 nM | 7.06 nM | 1.57 nM | 4.95 nM | 5.12 nM | 4e-05 µM | (93%) | (105%) | (132%) | (106%) | (98%)
4 | CNCc1cccc2c1OCCCCCC[C@@](C)(O)CC1(CC1)S(=O)(=O)c1ccc(cc1)-c1cnc(N)c(n1)C(=O)N2 (single isomer, unassigned) [Compound B-2] | 3 nM | 3.12 nM | 2.62 nM | 0.97 nM | 1.89 nM | 2.32 nM | 2e-05 µM | (81%) | (94%) | (115%) | (115%) | (101%)

More lines, main results first:

Row | IC50 (HCT116 Bcl/xl) | IC50 (OVCAR-3) | IC50 (OVCAR-8) | IC50 (SKOV-3) | IC50 (22RV1) | IC50 [1] | SMILES | minimal effective concentration (MEC (+APH)) | PALD (Percent Activity at Lowest Dose tested) HCT Bcl/xl (HCT116 Bcl/xl) | PALD (Percent Activity at Lowest Dose tested) OVCAR-3 (OVCAR-3) | PALD (Percent Activity at Lowest Dose tested) OVCAR-8 (OVCAR-8) | PALD (Percent Activity at Lowest Dose tested) SKOV-3 (SKOV-3) | PALD (Percent Activity at Lowest Dose tested) 22RV1 (22RV1)
5 | 2.06 nM | 3.85 nM | 6.8 nM | 1.08 nM | 4.32 nM | 3.6 nM | CC1(O)CCCCCCOc2c(CN)cccc2NC(=O)c2nc(cnc2N)-c2ccc(cc2)S(=O)(=O)C(C)(C)C1 (racemic) [Compound C, 5-amino-13-(aminomethyl)-22-hydroxy-22,24,24-trimethyl-25,25-dioxo-15-oxa-25λ^6-thia-4,8,31-triazatetracyclo[24.2.2.1^2,6.0^9,14]hentriaconta-1(28),2(31),3,5,9(14),10,12,26,29-nonaen-7-one] | 1e-05 µM | (65%) | (158%) | (73%) | (100%) | (90%)
6 | 62.1 nM | 11.5 nM | 84.6 nM | 9.5 nM | 84.9 nM | 50 nM | CNCc1ccc(-c2cc(-c3nc(-c4ccc(S(=O)(=O)C(C)C)cc4)cnc3N)on2)cc1 [VE822, reference compound] | 0.0003 µM | (105%) | (79%) | (89%) | (55%) | (86%)
